Measured values as given in ChEMBL document CHEMBL1828591, “Synthesis of antimitotic thioglycosides: in vitro and in vivo evaluation of their anticancer activity” (J Med Chem, 2011).
Activity calls are given as the source filed them. No cut-off for these calls is given here.

Tests used:
[1] = tested on: C6; assay: Antitumor activity against rat C6 cells xenografted in nude mouse assessed as reduction in tumor size at 1 mg/kg, intratumorally administered for 14 days; format: functional, organism-based; parameters: dose 1 mg/kg
[2] = tested on: C6; assay: Antitumor activity against rat C6 cells xenografted in nude mouse assessed as delay in tumor growth at 1 to 10 mg/kg, intratumorally administered for 8 days measured after 8 days relative to control; format: functional, organism-based
[3] = tested on: C6; assay: Antiproliferative activity against rat C6 cells after 48 hrs by MTT assay; format: functional; settings: C6, 48 h, read-out: ID50 (the source's name)
[4] = tested on: A549; assay: Reduction in ganglioside GM3 content of human A549 cell extract at 15 uM after 48 hrs by UPLC-MS analysis; format: functional, cell-based
[5] = tested on: A549; assay: Elevation in lactosylceramide content of human A549 cell extract at 15 uM after 48 hrs by UPLC-MS analysis; format: functional
[6] = tested on: A549; assay: Antiproliferative activity against human A549 cells after 48 hrs by MTT assay; format: functional; settings: A549, 48 h, read-out: ID50 (the source's name)
[7] = tested on: A549; assay: Reduction in ganglioside GM2 content of human A549 cell extract at 15 uM after 48 hrs by UPLC-MS analysis; format: functional, cell-based
[8] = tested on: A549; assay: Reduction in glucosylceramide content of human A549 cell extract at 15 uM after 48 hrs by UPLC-MS analysis; format: functional, cell-based
[9] = Drug uptake in cyst of nude mouse xenografted with rat C6 cells assessed as formation of olelyl alcohol at 10 mg/kg, intratumorally administered for 8 days by 1H MAS NMR spectroscopy; format: ADME, organism-based; parameters: dose 10 mg/kg; settings: in vivo, other, 192 h
[10] = tested on: C6; assay: Antitumor activity against rat C6 cells xenografted in nude mouse assessed as reduction in tumor volume at 1 to 10 mg/kg, intratumorally administered for 8 days measured after 8 days relative to control; format: functional, organism-based
[11] = tested on: A549; assay: Drug uptake in 10^6 human A549 cells at 15 uM after 48 hrs by UPLC-MS analysis; format: ADME, cell-based; settings: a549, 48 h
[12] = tested on: A549; assay: Elevation in glucosylceramide content of human A549 cell extract at 15 uM after 48 hrs by UPLC-MS analysis; format: functional, cell-based
[13] = tested on: N-acetyl-D-glucosaminidase; assay: Stability of the compound in presence of Jack bean N-acetyl-D-glucosaminidase assessed as compound hydrolyzed to N-acetyl-D-glucosamine at 1 mM after 48 hrs by HPLC analysis; format: ADME; settings: Jack bean N-acetyl-D-glucosaminidase (isolated enzyme), read-out: Activity
[14] = Stability of the compound in presence of Jack bean N-acetyl-D-glucosaminidase at 1 mM after 48 hrs by HPLC analysis; format: ADME; settings: 1000 µM
[15] = tested on: C6; assay: Antitumor activity against rat C6 cells xenografted in nude mouse assessed as increase in lactate levels in tumor at 10 mg/kg, intratumorally administered for 14 days by 1H MAS NMR spectroscopy relative to control; format: functional, organism-based; parameters: dose 10 mg/kg
[16] = tested on: C6; assay: Antitumor activity against rat C6 cells xenografted in nude mouse assessed as increase in choline-containing metabolite levels in tumor at 10 mg/kg, intratumorally administered for 14 days by 1H MAS NMR spectroscopy relative to control; format: functional, organism-based; parameters: dose 10 mg/kg
[17] = tested on: C6; assay: Antitumor activity against rat C6 cells xenografted in nude mouse assessed as reduction of creatine levels in tumor at 10 mg/kg, intratumorally administered for 14 days by 1H MAS NMR spectroscopy relative to control; format: functional, organism-based; parameters: dose 10 mg/kg
[18] = tested on: C6; assay: Antitumor activity against rat C6 cells xenografted in nude mouse assessed as reduction in tumor size at 10 mg/kg, intratumorally administered for 14 days relative to control; format: functional, organism-based; parameters: dose 10 mg/kg
[19] = tested on: C6; assay: Antitumor activity against rat C6 cells xenografted in nude mouse assessed as increase in acetate levels in tumor at 10 mg/kg, intratumorally administered for 14 days by 1H MAS NMR spectroscopy relative to control; format: functional, organism-based; parameters: dose 10 mg/kg

Compound | Activity [1] | Activity [2] | IC50 [3] [µM] | Activity [4] | Activity [5] [%] | IC50 [6] [µM] | Activity [7] | Activity [8] | Drug uptake [9] | Activity [10] | Drug uptake [11] [pmol] | Activity [12] | metabolised at 48 h, 1000 µM [13] [%] | Stability [14] | Activity [15] | Activity [16] | Activity [17] | Activity [18] | Activity [19]
CCCCCCCC/C=C\CCCCCCCCO[C@H]1O[C@H](CO)[C@@H](O)[C@H](O)[C@H]1NC(C)=O | inactive | inactive | 16 | Active | 40 | 25 | Active | inactive | Active | inactive | 2916 |  |  |  |  |  |  |  | 
CCCCCCCC/C=C\CCCCCCCCO[C@@H]1O[C@H](CO)[C@@H](O)[C@H](O)[C@H]1NC(C)=O |  |  | 38 | Active | 40 | 50 | Active |  |  |  | 952 | inactive | 32 |  |  |  |  |  | 
CCCCCCCC/C=C\CCCCCCCCS[C@@H]1O[C@H](CO)[C@@H](O)[C@H](O)[C@H]1NC(C)=O |  |  | 26 | Active | 40 | 30 | Active |  |  |  | 3333 | inactive |  | Stable |  |  |  |  | 
CCCCCCCC/C=C\CCCCCCCCS[C@H]1O[C@H](CO)[C@@H](O)[C@H](O)[C@H]1NC(C)=O | inactive |  | 14 | Active | 40 | 35 | Active | inactive |  |  | 3675 |  |  |  | Active | Active | Active | Active | Active
